Measurements reported in ChEMBL document CHEMBL4229379, “Synthesis and structure-activity relationship of novel bisindole amidines active against MDR Gram-positive and Gram-negative bacteria” (Eur J Med Chem, 2018).
≈ marks a conversion by molar mass, not a printed value.

What was measured:
[1] = test system: Enterococcus faecalis; assay: Antibacterial activity against vancomycin-resistant Enterococcus faecalis 09-9 after 18 hrs by CLSI broth microdilution method; assay type: functional; conditions: 09-9, 18 h
[2] = test system: Klebsiella pneumoniae; assay: Antibacterial activity against new delhi metallo-beta-lactamase-1 harboring Klebsiella pneumoniae ATCC BAA-2146 after 18 hrs by CLSI broth microdilution method; assay type: functional; conditions: ATCC BAA-2146, 18 h
[3] = test system: Staphylococcus epidermidis; assay: Antibacterial activity against methicillin-resistant Staphylococcus epidermidis 12-8 after 18 hrs by CLSI broth microdilution method; assay type: functional; conditions: 12-8, 18 h
[4] = test system: Escherichia coli; assay: Antibacterial activity against extended-spectrum beta-lactamase deficient Escherichia coli 12-14 after 18 hrs by CLSI broth microdilution method; assay type: functional; conditions: 12-14, 18 h
[5] = test system: Pseudomonas aeruginosa; assay: Antibacterial activity against Pseudomonas aeruginosa 12-16 after 18 hrs by CLSI broth microdilution method; assay type: functional; conditions: 12-16, 18 h
[6] = test system: Proteus mirabilis; assay: Antibacterial activity against Proteus mirabilis 12-6 after 18 hrs by CLSI broth microdilution method; assay type: functional; conditions: 12-6, 18 h
[7] = test system: Staphylococcus aureus; assay: Antibacterial activity against methicillin-sensitive Staphylococcus aureus ATCC 29213 after 18 hrs by CLSI broth microdilution method; assay type: functional; conditions: ATCC 29213, 18 h
[8] = test system: Staphylococcus aureus; assay: Antibacterial activity against methicillin-sensitive Staphylococcus aureus 15 after 18 hrs by CLSI broth microdilution method; assay type: functional; conditions: Staphylococcus aureus, 15, 18 h
[9] = test system: Escherichia coli; assay: Antibacterial activity against extended-spectrum beta-lactamase deficient Escherichia coli 1515 after 18 hrs by CLSI broth microdilution method; assay type: functional; conditions: Escherichia coli, 1515, 18 h
[10] = test system: Klebsiella pneumoniae; assay: Antibacterial activity against extended-spectrum beta-lactamase harboring Klebsiella pneumoniae ATCC 700603 after 18 hrs by CLSI broth microdilution method; assay type: functional; conditions: Klebsiella pneumoniae, 700603, 18 h
[11] = test system: Enterococcus faecium; assay: Antibacterial activity against vancomycin-sensitive Enterococcus faecium 12-3 after 18 hrs by CLSI broth microdilution method; assay type: functional; conditions: 12-3, 18 h
[12] = test system: Staphylococcus epidermidis; assay: Antibacterial activity against methicillin-sensitive Staphylococcus epidermidis ATCC 12228 after 18 hrs by CLSI broth microdilution method; assay type: functional; conditions: ATCC 12228, 18 h
[13] = Cytotoxicity against HEK293T cells assessed as reduction in cell viability after 48 hrs by MTS assay; assay type: cell-based, HEK-293T; conditions: human
[14] = test system: Escherichia coli; assay: Antibacterial activity against extended-spectrum beta-lactamase harboring Escherichia coli 12-15 after 18 hrs by CLSI broth microdilution method; assay type: functional; conditions: 12-15, 18 h
[15] = test system: Klebsiella pneumoniae; assay: Antibacterial activity against extended-spectrum beta-lactamase deficient Klebsiella pneumoniae 12-4 after 18 hrs by CLSI broth microdilution method; assay type: functional; conditions: 12-4, 18 h
[16] = test system: Staphylococcus aureus; assay: Antibacterial activity against methicillin-sensitive Staphylococcus aureus 12-28 after 18 hrs by CLSI broth microdilution method; assay type: functional; conditions: 12-28, 18 h
[17] = test system: Enterococcus faecalis; assay: Antibacterial activity against vancomycin-sensitive Enterococcus faecalis 12-5 after 18 hrs by CLSI broth microdilution method; assay type: functional; conditions: 12-5, 18 h
[18] = test system: Pseudomonas aeruginosa; assay: Antibacterial activity against Pseudomonas aeruginosa PAO1 after 18 hrs by CLSI broth microdilution method; assay type: functional; conditions: PAO1, 18 h
[19] = test system: Serratia marcescens; assay: Antibacterial activity against Serratia marcescens ATCC 21074 after 18 hrs by CLSI broth microdilution method; assay type: functional; conditions: ATCC 21074, 18 h
[20] = test system: Klebsiella pneumoniae; assay: Antibacterial activity against extended-spectrum beta-lactamase deficient Klebsiella pneumoniae 7 after 18 hrs by CLSI broth microdilution method; assay type: functional; conditions: Klebsiella pneumoniae, 7, 18 h
[21] = test system: Enterococcus faecalis; assay: Antibacterial activity against vancomycin-resistant Enterococcus faecalis ATCC 51299 after 18 hrs by CLSI broth microdilution method; assay type: functional; conditions: ATCC 51299, 18 h
[22] = test system: Enterobacter cloacae; assay: Antibacterial activity against Enterobacter cloacae ATCC 43560 after 18 hrs by CLSI broth microdilution method; assay type: functional; conditions: ATCC 43560, 18 h
[23] = test system: Providencia rettgeri; assay: Antibacterial activity against Providencia rettgeri ATCC 31052 after 18 hrs by CLSI broth microdilution method; assay type: functional; conditions: ATCC 31052, 18 h
[24] = test system: Enterococcus faecalis; assay: Antibacterial activity against vancomycin-sensitive Enterococcus faecalis ATCC 29212 after 18 hrs by CLSI broth microdilution method; assay type: functional; conditions: ATCC 29212, 18 h
[25] = test system: Staphylococcus aureus; assay: Antibacterial activity against methicillin-resistant Staphylococcus aureus 12-33 after 18 hrs by CLSI broth microdilution method; assay type: functional; conditions: 12-33, 18 h
[26] = test system: Klebsiella pneumoniae; assay: Antibacterial activity against extended-spectrum beta-lactamase harboring Klebsiella pneumoniae 12-8 after 18 hrs by CLSI broth microdilution method; assay type: functional; conditions: 12-8, 18 h
[27] = test system: Acinetobacter calcoaceticus; assay: Antibacterial activity against Acinetobacter calcoaceticus ATCC 19606 after 18 hrs by CLSI broth microdilution method; assay type: functional; conditions: ATCC 19606, 18 h
[28] = test system: Proteus vulgaris; assay: Antibacterial activity against Proteus vulgaris ATCC 29905 after 18 hrs by CLSI broth microdilution method; assay type: functional; conditions: ATCC 29905, 18 h
[29] = test system: Enterococcus faecium; assay: Antibacterial activity against vancomycin-resistant Enterococcus faecium 12-1 after 18 hrs by CLSI broth microdilution method; assay type: functional; conditions: 12-1, 18 h
[30] = test system: Enterococcus faecium; assay: Antibacterial activity against vancomycin-resistant Enterococcus faecium ATCC 700221 after 18 hrs by CLSI broth microdilution method; assay type: functional; conditions: ATCC 700221, 18 h
[31] = test system: Pseudomonas aeruginosa; assay: Antibacterial activity against Pseudomonas aeruginosa ATCC 27853 after 18 hrs by CLSI broth microdilution method; assay type: functional; conditions: ATCC 27853, 18 h
[32] = test system: Klebsiella aerogenes; assay: Antibacterial activity against Enterobacter aerogenes ATCC 13048 after 18 hrs by CLSI broth microdilution method; assay type: functional; conditions: ATCC 13048, 18 h
[33] = test system: Staphylococcus epidermidis; assay: Antibacterial activity against methicillin-sensitive Staphylococcus epidermidis 12-6 after 18 hrs by CLSI broth microdilution method; assay type: functional; conditions: 12-6, 18 h
[34] = test system: Staphylococcus aureus; assay: Antibacterial activity against methicillin-resistant Staphylococcus aureus ATCC 33591 after 18 hrs by CLSI broth microdilution method; assay type: functional; conditions: ATCC 33591, 18 h
[35] = test system: Escherichia coli; assay: Antibacterial activity against extended-spectrum beta-lactamase deficient Escherichia coli ATCC 25922 after 18 hrs by CLSI broth microdilution method; assay type: functional; conditions: ATCC 25922, 18 h
[36] = test system: Stenotrophomonas maltophilia; assay: Antibacterial activity against Stenotrophomonas maltophilia ATCC 13636 after 18 hrs by CLSI broth microdilution method; assay type: functional; conditions: ATCC 13636, 18 h
[37] = test system: Citrobacter freundii; assay: Antibacterial activity against Citrobacter freundii ATCC 43864 after 18 hrs by CLSI broth microdilution method; assay type: functional; conditions: ATCC 43864, 18 h

SMILES | MIC [1] [µg/mL] | MIC [2] [µg/mL] | MIC [3] [µg/mL] | MIC [4] [µg/mL] | MIC [5] [µg/mL] | MIC [6] [µg/mL] | MIC [7] [µg/mL] | MIC [8] [µg/mL] | MIC [9] [µg/mL] | MIC [10] [µg/mL] | MIC [11] [µg/mL] | MIC [12] [µg/mL] | CC50 at 48 h [13] [µg/mL] | MIC [14] [µg/mL] | MIC [15] [µg/mL] | MIC [16] [µg/mL] | MIC [17] [µg/mL] | MIC [18] [µg/mL] | MIC [19] [µg/mL] | MIC [20] [µg/mL] | also measured
CN(C)C(=N)c1ccc2cc(-c3cccc(-c4cc5ccc(C(=N)N(C)C)cc5[nH]4)c3)[nH]c2c1 | 64 (≈ 143 µM) | > 128 | 16 (≈ 35.7 µM) | 64 (≈ 143 µM) | > 128 | > 128 | 8 (≈ 17.8 µM) | 4 (≈ 8.92 µM) | 64 (≈ 143 µM) | > 128 | > 128 | 8 (≈ 17.8 µM) | 52.2 (≈ 116 µM) | 64 (≈ 143 µM) | > 128 | 4 (≈ 8.92 µM) | > 128 | > 128 | > 128 | > 128 | MIC [21]: 128 µg/mL (≈ 285 µM); MIC [22]: > 128 µg/mL; MIC [23]: 128 µg/mL (≈ 285 µM); MIC [24]: 64 µg/mL (≈ 143 µM); MIC [25]: 8 µg/mL (≈ 17.8 µM); MIC [26]: > 128 µg/mL; MIC [27]: > 128 µg/mL; MIC [28]: > 128 µg/mL; MIC [29]: 8 µg/mL (≈ 17.8 µM); MIC [30]: 16 µg/mL (≈ 35.7 µM); MIC [31]: > 128 µg/mL; MIC [32]: > 128 µg/mL; MIC [33]: 32 µg/mL (≈ 71.3 µM); MIC [34]: 4 µg/mL (≈ 8.92 µM); MIC [35]: 64 µg/mL (≈ 143 µM); MIC [36]: > 128 µg/mL; MIC [37]: > 128 µg/mL
CCN(C)C(=N)c1ccc2cc(-c3ccc(-c4cc5ccc(C(=N)N(C)CC)cc5[nH]4)cc3)[nH]c2c1 | 2 (≈ 4.2 µM) | 4 (≈ 8.39 µM) | 0.5 (≈ 1.05 µM) | 2 (≈ 4.2 µM) | 128 (≈ 269 µM) | 8 (≈ 16.8 µM) | 0.5 (≈ 1.05 µM) | 0.5 (≈ 1.05 µM) | 2 (≈ 4.2 µM) | 8 (≈ 16.8 µM) | 1 (≈ 2.1 µM) | 0.25 (≈ 0.525 µM) | 17 (≈ 35.8 µM) | 2 (≈ 4.2 µM) | 4 (≈ 8.39 µM) | 0.5 (≈ 1.05 µM) | 2 (≈ 4.2 µM) | 128 (≈ 269 µM) | 16 (≈ 33.6 µM) | 4 (≈ 8.39 µM) | MIC [21]: 2 µg/mL (≈ 4.2 µM); MIC [22]: 2 µg/mL (≈ 4.2 µM); MIC [23]: 4 µg/mL (≈ 8.39 µM); MIC [24]: 1 µg/mL (≈ 2.1 µM); MIC [25]: 1 µg/mL (≈ 2.1 µM); MIC [26]: 4 µg/mL (≈ 8.39 µM); MIC [27]: 4 µg/mL (≈ 8.39 µM); MIC [28]: 4 µg/mL (≈ 8.39 µM); MIC [29]: 0.5 µg/mL (≈ 1.05 µM); MIC [30]: 1 µg/mL (≈ 2.1 µM); MIC [31]: 8 µg/mL (≈ 16.8 µM); MIC [32]: 2 µg/mL (≈ 4.2 µM); MIC [33]: 0.25 µg/mL (≈ 0.525 µM); MIC [34]: 0.5 µg/mL (≈ 1.05 µM); MIC [35]: 1 µg/mL (≈ 2.1 µM); MIC [36]: 8 µg/mL (≈ 16.8 µM); MIC [37]: 2 µg/mL (≈ 4.2 µM)
COCCNC(=N)c1ccc2cc(-c3cncc(-c4cc5ccc(C(=N)NCCOC)cc5[nH]4)c3)[nH]c2c1 | > 64 | > 64 | > 64 | > 64 | > 64 | > 64 | > 64 | > 64 | > 64 | > 64 | > 64 | 64 (≈ 126 µM) | 28 (≈ 54.9 µM) | > 64 | > 64 | > 64 | > 64 | > 64 | > 64 | > 64 | MIC [21]: > 64 µg/mL; MIC [22]: > 64 µg/mL; MIC [23]: > 64 µg/mL; MIC [24]: > 64 µg/mL; MIC [25]: > 64 µg/mL; MIC [26]: > 64 µg/mL; MIC [27]: > 64 µg/mL; MIC [28]: > 64 µg/mL; MIC [29]: > 64 µg/mL; MIC [30]: > 64 µg/mL; MIC [31]: > 64 µg/mL; MIC [32]: > 64 µg/mL; MIC [33]: 64 µg/mL (≈ 126 µM); MIC [34]: > 64 µg/mL; MIC [35]: > 64 µg/mL; MIC [36]: > 64 µg/mL; MIC [37]: > 64 µg/mL
